Residues, ends and D or L forms follow the SMILES beside them. No end group written: not given here. K(CB-TE2A) = lysine carrying the CB-TE2A chelator (for 64Cu); Cy7 = near-infrared fluorescent dye for NIRF imaging; PEGn = polyethylene glycol (n units) spacer

A short description of series [1]: Solubility of the peptide. It is filed as physicochemical.
The subject of series [2] is MCF-7 cells. The series is described as follows: Cellular toxicity of LDLLDL peptide by microscopy. In kind it is cell-based, human. The following applies: 0.1-1000 μM/mL, up to highest concentration tested. The source says: (§1) A FPR-targeted peptide and its optical imaging probe were designed and synthesized: The inventors synthesized an FPR-targeted peptide agent Leu-Asp-Leu-Leu-Asp-Leu (LDLLDL: SEQ ID NO:1), which is an antagonist peptide for FPR1 receptor. The inventors have also developed an NIR optical imaging probe to evaluate the targeting capability. Specifically, the base peptide ligand was synthesized by the solid-phase method. After the peptide sequence was assembled on resin, the ivDDE protecting group was removed from the w-amino group of the lysine by treatment with hydrazine. The inventors tested varying concentrations (0.1-1000 μM/mL) of LDLLDL (SEQ ID NO:1) peptide in all four breast cancer cell types (BT474, BT549, MDA-MB-231 and MCF-7) to assess cellular toxicity.

The subject of series [3] is BT474 cells. Put plainly: Cellular toxicity of LDLLDL peptide by microscopy. The settings on record: 0.1-1000 μM/mL, up to highest concentration tested. It is filed as cell-based, human.
Source text: as §1

The subject of series [4] is MDA-MB-231 cells. The series is described as follows: Cellular toxicity of LDLLDL peptide by microscopy. The settings on record: 0.1-1000 μM/mL, up to highest concentration tested. In kind it is cell-based, human.
Source text: as §1

In another series the test system is BT549 cells. Put plainly: Cellular toxicity of LDLLDL peptide by microscopy. In kind it is cell-based, human. The following applies: 0.1-1000 μM/mL, up to highest concentration tested.
Source text: as §1

In series [5] the test system is 4T1 breast cancer tumor xenograph. Put plainly: In vivo fluorescence imaging in tumor xenograph mice. Further details: species or system Balb/c mice. The following applies: 30 ul of peptide (2 nMoles), within 6 hr, mammary gland tumors. How it is done: FIG. 10 depicts one of 10 mice experiments in accordance with various embodiments. Ten mice (Balb/c mice) were implanted with breast cancer cells (4T1) to develop breast cancer tumor xenograph model. The tumors were allowed to grow for 4 weeks before the mice were injected with 30 ul of peptide (2 nMoles). The animals were imaged using mouse fluorescence imaging after 1, 2, 3, 4, 6 hr.

In series [6] the test system is MDA-MB-231 breast cancer tumor xenograph. The series is described as follows: In vivo fluorescence imaging and organ biodistribution in tumor xenograph mice. How it is done:
FIG. 5 depicts in accordance with various embodiments of the invention, in vivo fluorescent image of xenograft mice after 6 hours of tail vein injection. Mice were injected with fluorescent dye (Cy7) only (left panel), and peptide-Cy7 (right panel).
FIG. 6 depicts in accordance with various embodiments of the invention, the biodistribution in tumor-bearing mice after 7 hours of tail vein injection. Mice were injected with fluorescent dye only (left panel), and peptide LDLLDL-Cy7 (right panel)([SEQ ID NO:1]-Cy7).
Ten mice were implanted with breast cancer cells (MDA-MB-231) to develop breast cancer tumor xenograph models. The tumors were allowed to grow for 4 weeks before the mice were injected with 30 ul of peptide (2 nMoles). The animals were imaged using mouse fluorescence imaging after 1, 2, 3, 4, and 6 hours. FIG. 5 show the results of one of those mice experiments. […] After 7 hours the animals were sacrificed and organs extracted and imaged.

Series [7] has as its system macrophage cell line RAW264.7. The series is described as follows: Cellular uptake of FPR peptide by near infrared fluorescence imaging. In kind it is cell-based. The following applies: peptide 5 uMol/uL, 4 hrs. How it is done: (§2) To study the ability of the FPR peptide to internalize and fluorescently labeled cancer and macrophage cells, various breast cancer cell lines were treated with the peptide (5 uMol/uL) for 4 hrs. […] Fluorescence uptake was not observed in the normal human mammary epithelial cells (HEMC-control), as expected, since there is no expression of FPR receptor for HEMC.

For series [8], the system named is normal human mammary epithelial cell (HEMC). The series is described as above. In kind it is cell-based. How it is done:
as §2
(§3) LDLLDL-Cy7 ([SEQ ID NO:1]-Cy7) was used to treat five cancer cell lineages (MDA-MB-231, BT549, HCC1500, BT474, and MCF-7) and normal human mammary epithelial cell (HEMC) for 3 hrs at the concentrations of 5 and 10 μM/mL. After washing 3 times with cold PBS, all cells were imaged using near infrared fluorescence imaging and target specificity of the FPR peptide was evaluated.

The test system of series [9] is MCF-7 cells. Described as above. It is filed as cell-based, human. The settings on record: 3 hrs, 5 and 10 μM/mL, FIG. 4. How it is done:
as §2, §3

In series [10] the test system is BT474 cells. The series is described as above. It is filed as cell-based, human. The protocol:
as §2, §3

For series [11], the system named is MDA-MB-231 cells. The series is described as above. It is filed as cell-based, human. The settings on record: 3 hrs, 5 and 10 μM/mL, FIG. 4. How it is done: as §2, §3
Another series has as its system HCC1500 cells. The series is described as above. It is filed as cell-based, human. How it is done: as §2, §3
The subject of the next series is human TNBC cells. Put plainly: Target specificity of the FPR peptide by near infrared fluorescence imaging. In kind it is cell-based. The following applies: 3 hrs, 5 and 10 μM/mL. How it is done: as §3
In series [12] the test system is E0771 breast cancer tumor xenograph. The series is described as follows: In vivo fluorescence imaging in tumor xenograph mice. Further details: species or system C57BL/6 mice. The following applies: 30 ul of peptide (2 nMoles), within 6 hr, rear bilateral flank tumors. The protocol:
FIG. 9 depicts one of 10 mice experiments in accordance with various embodiments. Ten mice (C57BL/6 mice) were implanted with breast cancer cells (E0771) to develop breast cancer tumor xenograph model. The tumors were allowed to grow for 4 weeks before the mice were injected with 30 ul of peptide (2 nMoles). The animals were imaged using mouse fluorescence imaging after 1, 2, 3, 4, 6 hr.

In the next series the test system is tumor-expressing ANXA1. The series is described as follows: In vitro target binding specificity in breast cancer cell models. In kind it is cell-based. The settings on record: human breast cancer cell models. How it is done: In vitro target specificity binding is evaluated in two steps: Step 1: Characterize the ANXA1/FPR1 expression baseline by examining expression levels of FPR1 and ANXA1 in five human breast cancer cell lines, MDA-MB-231, HCC1500, BT549, MCF-7, BT474, and HEMC. Obtaining protein expression by performing IHC staining using the anti-ANXA1 and anti-FPR1 antibody. The cell lines with positive staining are identified. Further, the […] of ANXA1 and FPR1 are evaluated by western blotting and qRT-PCR. The correlation between FPR1 and ANXA1 are validated, and the cells with highest FPR1 and ANXA1 expression are selected for further in vivo study. The results establish the baseline of expression of ANXA1 and FPR1 in the tested breast cancer cell lines.
Step 2: Characterization of the binding specificity of the LDLLDL-^64Cu ([SEQ ID NO:1]-^64Cu) is tested on the cell lines described above. The cells are cultured in two groups of Petri dishes. […] The suspended cells are measured for radioactivity using a gamma-counter. Disintegrations per minute per cell are calculated and reported as the peptide uptake for each cell line. […] The cell-associated radioactivity is measured, and the binding affinity is determined by the Grafit software (Erithacus, Inc). […]

The subject of series [13] is ANXA1-knockdown breast cancer xenograft. The series is described as follows: PET uptake in ANXA1-knockdown xenograft model. It is filed as in vivo, mice. The source says: Without being bound to any particular theory, the inventors believe that ANXA1 is associated with tumorigenesis and progression, and the synthesized peptide imaging probe can be used as a surrogate for monitoring the tumor expression with ANXAL. To characterize target specificity, the inventors developed the breast cancer xenograft model with ANXA1 overexpression as well as an ANXA1-knockdown model using a shRNA lentiviral vector technique. […] The inventors assess the pharmacokinetic profile and tumor specific targeting potency of the new imaging probe, and its effectiveness in evaluation of tumorigenesis and progression of aggressive breast cancer. See FIG. 8 for experimental design. […]
Evaluation of tumor uptake in ANXA1 knockdown xenograft model: The inventors evaluate the effects of ANXA1 in regulating tumorigenesis and progression using the ANXA1-KD/control breast cancer xenograft model. […] Tumor growth and/or progression of the disease is monitored up to 8 weeks after cell inoculation. […] On completion of PET/CT at 24 h after injection, a tissue radioactivity assay is performed, and tissue radioactivity is calculated and expressed as decay-corrected percentage injected dose per gram of tissue (% ID/g). The tumor radioactivity and size are compared between ANXA1-KD tumor and ANXA1-SCR tumor. […]

Series [14] relates to xenograft breast cancer model with ANXA1 overexpression. Put plainly: PET uptake in breast cancer xenograft model with ANXA1 overexpression. It is filed as in vivo, mice. The source says:
Without being bound to any particular theory, the inventors believe that ANXA1 is associated with tumorigenesis and progression, and the synthesized peptide imaging probe can be used as a surrogate for monitoring the tumor expression with ANXAL. To characterize target specificity, the inventors developed the breast cancer xenograft model with ANXA1 overexpression as well as an ANXA1-knockdown model using a shRNA lentiviral vector technique. […] The inventors assess the pharmacokinetic profile and tumor specific targeting potency of the new imaging probe, and its effectiveness in evaluation of tumorigenesis and progression of aggressive breast cancer. See FIG. 8 for experimental design.
Breast cancer xenograft model: In vitro studies described above identified the expression of ANXA1/FPR1 for all tested cells. […] Body weight and tumor volume is measured weekly. […]
Blood clearance and biodistribution: i) Blood clearance: After anesthesia (isoflurane 2-3%), 2 groups of 5 mice each are injected with radiolabeled LDLLDL-^64Cu ([SEQ ID NO:1]-^64Cu) (˜5 μCi) via tail vein. Retro-orbital blood samples (25 μL) are collected at various time points such as 5, 15, 30, 60, 120, 240 min and 24 h after injection and radioactivity of all samples are counted in a gamma counter (Perkin-Elmer). […] At 1 h, 2 h, 4 h, 24 h after injection, mice are scanned by small-animal PET followed by tissue radioactivity assay. […]

[15] abbreviates: organs extracted after 7 hours, FIG. 6.

With `CC(C)C[C@H](NC(=O)[C@H](CC(=O)O)NC(=O)[C@H](CC(C)C)NC(=O)[C@H](CC(C)C)NC(=O)[C@H](CC(=O)O)NC(=O)[C@@H](N)CC(C)C)C(=O)O` [LDLLDL, Leu-Asp-Leu-Leu-Asp-Leu] (H-LDLLDL-OH; N-terminus and C-terminus assumed), the solubility result in series [1] is on record as “superior”. The “cellular toxicity (cell death by microscopy)” value with MCF-7 cells [2], in the series with BT474 cells [3], with MDA-MB-231 cells [4] and in the series on BT549 cells was “Apparent cell death could not be observed” each time.
As to LDLLDL-Cy7, the “fluorescence in the implanted tumors” value in series [5] was “intense fluorescence”; in [6] (tail vein injection, 6 hours after injection, FIG. 5) it was “intense fluorescence”; in series [12] it was “intense fluorescence”. In addition, in series [6] (setting [15]), the “fluorescence in the rest of the organs” value was “no significant fluorescence”. Further, the “uptake in the tumors (extracted organs imaged)” value in [6] (setting [15]) was “strong uptake”. Further, the “uptake of the peptide” value in [7] is recorded as “substantial uptake”. For the same molecule, the “fluorescence uptake of LDLLDL-Cy7” value in series [8] (3 hrs, 5 and 10 μM/mL, FIG. 4) is reported as “no fluorescence uptake”. In series [8] (peptide 5 uMol/uL, 4 hrs, control without FPR expression), the fluorescence uptake entry was “not observed”. Moreover, the “uptake of LDLLDL-Cy7” value with MCF-7 cells [9] is “weak uptake”; in the series on BT474 cells [10] (3 hrs, 5 and 10 μM/mL, FIG. 4), “weak uptake”; in the series on MDA-MB-231 cells [11] it was “substantial uptake”; in the series with HCC1500 cells (3 hrs, 5 and 10 μM/mL, FIG. 4), “substantial uptake”. Moreover, the cell associated fluorescence entry in the series with BT474 cells [10] (peptide 5 uMol/uL, 4 hrs, Her2 line) is on record as “cell associated fluorescence”; with HCC1500 cells (peptide 5 uMol/uL, 4 hrs, ER-positive luminal line), “cell associated fluorescence”. Further, in the series with human TNBC cells, the binding affinity entry is recorded as “High binding affinity”.
In the case of “LDLLDL-^64Cu (LDLLDL-{PEGn-K(CB-TE2A)}; also: 64Cu chelated by CB-TE2A)”, in the series with tumor-expressing ANXA1, the “targeting specificity and sensitivity” value is “excellent specificity and sensitivity”. Moreover, the “uptake of the peptide” value in series [13] is on record as “reduced uptake”. For the same molecule, the “uptake in PET image studies” value in [14] is “significantly high uptake”.

The record behind these values is patent US11795197B2, “Peptide compositions for immuno-oncology molecular imaging and targeted drug delivery” (Cedars-Sinai Medical Center, priority 2017, dated 2023).
